{
  "source": "patent US10414721B1",
  "about": "“Inhibitor of endocannabinoid cellular reuptake” (University of Bern, priority 2018, dated 2019)",
  "key": {"[1]": {"test_system": "BALB/c mice", "assay": "Tetrad test after i.p. administration", "format": "in vivo, mouse", "method": "WOBE437 was initially assessed in a battery of four individual tests typically associated with CB1 receptor activation in mice (nociception, locomotion, body temperature and cataleptic behavior), collectively referred to as the “tetrad”. Dose-response experiments identified 10 mg/kg as the lowest dose to elicit a moderate but complete tetrad in BALB/c mice upon intraperitoneal (i.p.) administration (FIGS. 3A-D). […] To assess whether the WOBE437-induced effects were CB1 receptor-mediated, mice were pre-treated with the selective antagonist/inverse agonist rimonabant (SR1). […] These experiments provided a proof-of-concept for the mechanism of action of WOBE437 as a novel “indirect CB1 receptor agonist”. In subsequent studies, the effects of WOBE437 in pain, inflammatory and anxiety models were investigated. […] Both effects were reversed by SR1.\nWOBE437 and RX-055 were tested in independent laboratories, in different mouse strains and in multiple (behavioral) models for cannabimimetic, analgesic, anti-inflammatory and anxiolytic-effects in wild-type and phenotypical CB1-KO mice as described in Chicca 2017."}, "[2]": {"test_system": "main EC degrading enzymes (FAAH, MAGL)", "assay": "Stability towards endocannabinoid degrading enzymes", "format": "in vitro ADME", "method": "(§1) FAAH, ABHDs, MAGL and COX-2 activity assays were performed using cell homogenates, human recombinant enzymes and mouse, rat and pig brain homogenates as previously described."}, "[3]": {"test_system": "major serine hydrolases", "assay": "Activity-based protein profiling (ABPP) in mouse brain membranes", "format": "biochemical", "settings": "membranes from mouse brain", "method": "(§2) ABPP experiments were performed using membrane preparations obtained from mouse brains as described earlier."}, "[4]": {"assay": "Microsomal clearance, human liver microsomes", "format": "in vitro ADME", "method": "Human or mice microsome clearance experiment were carried out as according to a previously describe protocol. Briefly, microsome preparation (0.5 mg/mL) plus cofactor NADPH solution was incubated with 1 μM of WOBE437 in 96-well plates at 37° C. After 1, 3, 6, 9, 15, 25, 35 and 45 min, 40 μL of the preparation was transferred and quenched with 3:1 (v/v) acetonitrile containing internal standards. Samples were then cooled and centrifuged before analysis by LC-MS/MS. Log peak area ratios (test compound peak area/internal standard peak area) are plotted against incubation time using a linear fit. The calculated slope is used to determine the intrinsic clearance. Data are obtained from single experiments measured with multiple time-points."}, "[5]": {"target": "T1, ABHD12 (Mus musculus, UniProt Q99LR1)", "T1 construct": "membrane preparations obtained from mouse brains; from tissue; host or cells: mouse brain membranes", "T1 sequence (Q99LR1 whole entry)": "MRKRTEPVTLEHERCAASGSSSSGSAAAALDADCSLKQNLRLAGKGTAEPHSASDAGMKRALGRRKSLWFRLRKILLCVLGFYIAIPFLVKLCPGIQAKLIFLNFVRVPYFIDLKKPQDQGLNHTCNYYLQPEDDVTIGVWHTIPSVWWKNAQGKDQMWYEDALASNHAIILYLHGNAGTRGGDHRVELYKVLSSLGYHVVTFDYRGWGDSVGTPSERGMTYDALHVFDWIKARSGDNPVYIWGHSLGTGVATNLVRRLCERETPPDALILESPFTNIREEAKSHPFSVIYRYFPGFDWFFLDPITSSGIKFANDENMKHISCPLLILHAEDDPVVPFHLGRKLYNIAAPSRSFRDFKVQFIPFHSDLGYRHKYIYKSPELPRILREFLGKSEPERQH", "assay": "ABHD12 activity (ABPP and radioactivity-based hydrolytic assays)", "format": "biochemical", "settings": "ABPP in mouse brain homogenate and hydrolytic assays", "method": "as §2, §1"}, "[6]": {"test_system": "AEA uptake in Neuro2a mouse neuroblastoma cells", "assay": "AEA uptake inhibition in Neuro2a cells", "format": "cell-based", "method": "All radioactivity-based AEA and 2-AG uptake and release assays performed in U937, and HMC-1 cells were carried out using two different assay formats as previously reported. AEA and 2-AG uptake assay in Neuro2a and primary mouse cortical neurons were performed with a different method disclosed in Chicca 2017."}, "[7]": {"target": "CB1 receptor (Homo sapiens, UniProt P21554)", "sequence (P21554 whole entry)": "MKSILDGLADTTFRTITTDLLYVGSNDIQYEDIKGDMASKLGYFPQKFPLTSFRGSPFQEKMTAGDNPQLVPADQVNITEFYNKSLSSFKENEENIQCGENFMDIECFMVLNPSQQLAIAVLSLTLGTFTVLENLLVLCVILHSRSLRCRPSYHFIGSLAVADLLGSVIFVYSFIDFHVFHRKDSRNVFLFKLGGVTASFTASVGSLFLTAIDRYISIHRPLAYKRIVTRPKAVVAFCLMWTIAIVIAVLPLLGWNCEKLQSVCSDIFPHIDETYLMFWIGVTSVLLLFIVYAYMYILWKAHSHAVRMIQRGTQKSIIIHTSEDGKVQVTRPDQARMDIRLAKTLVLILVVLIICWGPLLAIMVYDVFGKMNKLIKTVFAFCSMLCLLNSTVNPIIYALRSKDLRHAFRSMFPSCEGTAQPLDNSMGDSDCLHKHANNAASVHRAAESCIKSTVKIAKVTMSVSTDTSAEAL", "assay": "CB1 receptor binding assay", "method": "(§3) CB1 and CB2 receptor binding assays [^35S]GTPγS assays were performed as previously described. WOBE437 was profiled in more detail in an extended CNS adverse drug reaction screening panel (CEREP)."}, "[8]": {"test_system": "45 CNS-related receptors", "assay": "CNS adverse drug reaction screening panel (CEREP)", "format": "binding", "settings": "including cannabinoid receptors", "method": "as §3"}, "[9]": {"target": "T2, MAGL (Mus musculus, UniProt O35678)", "T2 construct": "membrane preparations obtained from mouse brains; from tissue; host or cells: mouse brain membranes", "T2 sequence (O35678 whole entry)": "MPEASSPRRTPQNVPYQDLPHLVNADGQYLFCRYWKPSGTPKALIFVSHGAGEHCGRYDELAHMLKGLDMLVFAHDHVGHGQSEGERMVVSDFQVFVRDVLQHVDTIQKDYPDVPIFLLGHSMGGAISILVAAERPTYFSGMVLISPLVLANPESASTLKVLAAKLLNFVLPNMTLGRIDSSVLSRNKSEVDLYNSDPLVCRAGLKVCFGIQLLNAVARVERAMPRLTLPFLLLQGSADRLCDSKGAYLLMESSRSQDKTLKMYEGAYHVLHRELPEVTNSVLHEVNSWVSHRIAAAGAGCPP", "assay": "MAGL activity (ABPP and radioactivity-based hydrolytic assays)", "format": "biochemical", "settings": "ABPP in mouse brain homogenate and hydrolytic assays", "method": "as §2, §1"}, "[10]": {"assay": "Oral bioavailability and tissue distribution", "format": "in vivo, mouse", "settings": "for Cmax: read-out: apparent Cmax in plasma; for concentration at 20 min: oral, read-out: plasma level", "method": "Male C57BL6/J or male BALB/c mice were orally administered by gavage with 10, 25, 50 or 100 mg/kg of WOBE437 (100 μL; olive oil and ethanol 8:2) using a metal feeding needle (20G, Kent Scientific, USA). The mice were sacrificed by decapitation after gavage administration. Brain, blood, liver, kidney and spleen were collected for the LC-MS/MS analyses. All tissues were briefly washed with ice cold PBS and immediately snap-frozen and stored at −80° C. Whole brain samples were dissected between the hemispheres. Blood samples were immediately centrifuged to obtain plasma, which was stored at −80° C.\nSamples extractions and LC-MS/MS measurements were performed as previously described (Chicca et al., 2017). Briefly, tissues were weighted and transferred in to extraction tubes containing three steel beads and 0.1 M formic acid. Tissues were homogenized and rapidly transferred to glass tubes containing 1.5 mL of ethyl acetate:hexane (9:1) 0.1% formic acid and internal standards (ISs). Samples were centrifuged and the organic phase was recovered. After evaporation, the extracts were reconstituted in 200 μL of ACN:ddH2O (8:2). 10 μL of the solution were injected in the LC-MS/MS system using the same LC and ionization protocols as described (Chicca et al., 2017)."}, "[11]": {"target": "FAAH (Homo sapiens, UniProt O00519)", "sequence (O00519 whole entry)": "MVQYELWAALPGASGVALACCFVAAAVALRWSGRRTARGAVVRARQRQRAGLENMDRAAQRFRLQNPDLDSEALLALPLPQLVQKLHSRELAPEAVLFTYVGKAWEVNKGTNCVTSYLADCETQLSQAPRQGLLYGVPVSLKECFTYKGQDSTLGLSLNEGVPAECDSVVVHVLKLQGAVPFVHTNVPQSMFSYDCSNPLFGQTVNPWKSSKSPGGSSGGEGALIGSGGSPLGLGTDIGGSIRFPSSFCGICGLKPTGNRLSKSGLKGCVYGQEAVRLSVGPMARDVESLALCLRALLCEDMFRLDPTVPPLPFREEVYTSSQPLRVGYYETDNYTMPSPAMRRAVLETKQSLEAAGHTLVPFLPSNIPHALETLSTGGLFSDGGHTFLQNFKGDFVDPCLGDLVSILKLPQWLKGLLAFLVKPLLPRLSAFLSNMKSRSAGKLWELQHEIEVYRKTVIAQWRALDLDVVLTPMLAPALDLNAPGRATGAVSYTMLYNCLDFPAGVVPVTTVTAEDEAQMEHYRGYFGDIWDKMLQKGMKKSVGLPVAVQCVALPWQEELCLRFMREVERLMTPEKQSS", "assay": "FAAH activity / AEA hydrolysis assay", "format": "biochemical", "settings": "human recombinant enzyme, cell and brain homogenates; read-out: IC50 for AEA hydrolysis (FAAH) inhibition", "method": "as §1"}},
  "note": "“Also recorded” adds a separate entry of the source. Like-named read-outs stand apart in the source and are kept apart here.",
  "data": [
    {"smiles": "CCCCCCC/C=C/C=C/C(=O)NCCc1ccc(OC)c(OC)c1", "note": "[WOBE437, (2E,4E)-N-[2-(3,4-Dimethoxyphenyl)ethyl]dodeca-2,4-dienamide]", "values": [
      {"measurement": "tetrad response", "setting": "[1]; 3 mg/kg", "value": "ineffective"},
      {"measurement": "tetrad response", "setting": "[1]; 10 mg/kg", "value": "full tetrad response"},
      {"measurement": "tetrad in CB1 receptor-deficient littermates", "setting": "[1]; C57BL6/N background", "value": "completely absent"},
      {"measurement": "tetrad effects after pre-treatment with rimonabant (SR1)", "setting": "[1]; hypothermia, catalepsy and antinociception", "value": "completely blocked by SR1"},
      {"measurement": "hypothermia, catalepsy and antinociception compared to (R)-WIN55,212-2", "setting": "[1]; i.p.", "value": "significantly less pronounced"},
      {"measurement": "lowest dose to elicit a complete tetrad", "setting": "[1]; i.p., BALB/c mice", "value": 10, "unit": "mg/kg"},
      {"measurement": "stability in the presence of the main EC degrading enzymes", "setting": "[2]", "value": "completely stable; also recorded: not affected by the hydrolytic activity of FAAH and MAGL"},
      {"measurement": "inhibition of major serine hydrolases (ABPP)", "setting": "[3]", "value": "does not inhibit any of the major serine hydrolases"},
      {"measurement": "clearance", "setting": "[4]; 1 μM, preliminary", "value": 0.657, "unit": "mL/min/kg"},
      {"measurement": "bioavailability at 1 μM", "setting": "[4]; human, humans, from microsomal clearance, read-out: estimated maximal bioavailability", "value": 4, "unit": "%"},
      {"measurement": "inhibition of ABHD12", "setting": "[5]", "value": "did not inhibit"},
      {"measurement": "Hill slope, AEA uptake", "setting": "[6]; Neuro2a cells", "value": "−0.705"},
      {"measurement": "inhibition at 1 µM", "setting": "[6]; mouse/rat NG108-15, N2a, 2-10 min of incubation", "value": 35, "unit": "%"},
      {"measurement": "inhibition at 1 µM", "setting": "[6]; mouse/rat NG108-15, N2a, 15-20 min of incubation", "value": 20, "unit": "%"},
      {"measurement": "IC50", "setting": "[6]; mouse/rat NG108-15, N2a, Neuro2a cells", "value": "0.055 ± 0.018", "unit": "µM"},
      {"measurement": "Ki", "setting": "[7]", "value": 17, "unit": "µM"},
      {"measurement": "interaction with 45 CNS-related receptors", "setting": "[8]", "value": "did not exhibit any significant interaction"},
      {"measurement": "inhibition of MAGL", "setting": "[9]", "value": "did not inhibit"},
      {"measurement": "brain level", "setting": "[10]; 10 mg/kg p.o., 20 min, C57BL6/J", "value": "24.7 ± 25.3", "unit": "pmol/g"},
      {"measurement": "apparent volume of distribution (Vd) at Cmax", "setting": "[10]; 50 mg/kg p.o.", "value": 80.4, "unit": "L/kg"},
      {"measurement": "apparent volume of distribution (Vd) at the steady state", "setting": "[10]; 50 mg/kg p.o.", "value": 609, "unit": "L/kg"},
      {"measurement": "brain concentration 3 h after administration", "setting": "[10]; 50 mg/kg p.o.", "value": 18, "unit": "pmol/g"},
      {"measurement": "drop of hepatic concentration between 20 and 40 min", "setting": "[10]; 50 mg/kg p.o.", "value": 4, "unit": "factor"},
      {"measurement": "estimated concentration in brain", "setting": "[10]; 50 mg/kg p.o.", "value": "399.7 ± 154.7", "unit": "nM"},
      {"measurement": "time until cleared from the brain", "setting": "[10]; 50 mg/kg p.o.", "value": "approximately 180 min"},
      {"measurement": "brain levels after p.o. as compared to i.p. (times lower)", "setting": "[10]; 50 mg/kg p.o. vs 10 mg/kg i.p.", "value": "approximately 10 times"},
      {"measurement": "highest concentration in kidney", "setting": "[10]; 50 mg/kg p.o., 20 min", "value": "2277 ± 916", "unit": "pmol/g"},
      {"measurement": "highest concentration in liver", "setting": "[10]; 50 mg/kg p.o., 20 min", "value": "4720 ± 3273", "unit": "pmol/g"},
      {"measurement": "highest concentration in spleen", "setting": "[10]; 50 mg/kg p.o., 20 min", "value": "1030 ± 339", "unit": "pmol/g"},
      {"measurement": "brain level", "setting": "[10]; 50 mg/kg p.o., 20 min, C57BL6/J", "value": "534.5 ± 109.9", "unit": "pmol/g"},
      {"measurement": "hepatic concentration", "setting": "[10]; 50 mg/kg p.o., 40 min", "value": 1080, "unit": "pmol/g"},
      {"measurement": "Cmax", "setting": "[10]; 50 mg/kg p.o.", "value": "~2000", "unit": "nM"},
      {"measurement": "Tmax", "setting": "[10]; male, C57BL6/J, mouse, brain, plasma, po, 50 mg/kg, 50 mg/kg p.o., read-out: tmax in brain and plasma", "value": "≤ 20", "unit": "min"},
      {"measurement": "Tmax", "setting": "[10]; male, C57BL6/J, mouse, kidney, liver, spleen, po, 50 mg/kg, 50 mg/kg p.o., read-out: tmax in kidney, liver and spleen (converted)", "value": 20, "unit": "min"},
      {"measurement": "Cmax", "setting": "[10]; male, C57BL6/J, mouse, plasma, po, 50 mg/kg, 50 mg/kg p.o.", "value": "1930 ± 564", "unit": "nM"},
      {"measurement": "concentration at 20 min", "setting": "[10]; male, mouse, plasma, 10 mg/kg p.o., 20 min, C57BL6/J", "value": "47.3 ± 32.5", "unit": "nM"},
      {"measurement": "concentration at 20 min", "setting": "[10]; male, mouse, plasma, 50 mg/kg p.o., 20 min, C57BL6/J", "value": "1730 ± 703", "unit": "nM"},
      {"measurement": "IC50", "setting": "[11]", "value": "≥ 10", "unit": "µM"}
    ]}
  ]
}
